Laboratory results reported in patent US7049301B2, “Quercetin derivatives and their medical usages” (Academy of Military Medical Sciences Institute of …, priority 2001, dated 2006).
pIC50: −log10 of the molar value. Like-named read-outs stand apart in the source and are kept apart here. Values belong to the molecule of their own block, whether it stands above or below them.

Experiments:
adenylate cyclase (AC) = assay: Activation of adenylate cyclase (AC) in rat cerebral cortex synaptolemma, cAMP produced; format: biochemical; details: for Amount of cAMP produced: X ± SD; for Activation of AC (in words): rat cerebral cortex synaptolemma
Method: 3.1 Effect on Activities of Adenylate Cyclase (AC) in Rat Cerebral Cortex:
Male Wistar rats weighed 200±20 g are sacrificed by decollation, and cerebral cortex is separated. Synaptolemma is extracted at 4° C. according to the method as described in literature (Rasenick M M et al, Pro. Natl. Acad. Sci. USA, 1980; 77:4628) and suspended in buffer solution, so that a protein concentration of 3˜5 mg/ml is reached. The synaptolemma has to be incubated in advance with the test medicine, as adenylate cyclase (AC) is located on it. The experiment is carried out as follows: portions of 100 μl reaction solution containing certain concentration of test medicine and 15 mmol/L HEPES, pH=7.5, 5 mmol/L MgCl2, 1 mmol/L EGTA, […], 60 mmol/L NaCl, 1 mmol/L aminophylline, 0.5 mg/ml phosphocreatine and 0.14 mg/ml phosphocreatine kinase are respectively dispensed into reaction tubes, followed by addition of 20 μg synaptolemma to each tube. Then, the tubes are immediately put into a water-bath at 30° C. to react for 10 minutes, which reaction is linear during the first 20 minutes. After that, all the reaction tubes are immediately transferred into boiling water and deposited for 3 minutes to terminate the reaction. The amount of cAMP thus produced is measured in an ice-bath environment with cAMP kit, the total reaction volume is 130 μL. The measure is carried out according to the instruction of the kit: various reagents are added and, after the reaction finishes, the tubes are centrifugated at 4000 rpm for 7 minutes. 120 μl supernatant is then pipetted into the measure cup, added afterwards with 1.5 ml anhydrous alcohol, after shaken up, 3.5 ml of scintillation solution is added. Then, the cups are sealed and shaken up, and are left overnight. The values of […] of all samples are determined then by Wallac 1409 liquid scintillation counter. The amount of cAMP produced can be calculated according to the standard curve and CPM. The results are statistically analyzed by ANOVA, and Dunnett's T test is made for inter-group comparison.

mice = assay: Forced swimming test; format: in vivo; details: for Duration of immobility: abdominal administration, last 4 of 6 minutes; for immobility time: oral
Method: (1) The test is carried out according to literature (Arch Int. Pharmacodn. Ther, 1977, 229(2): 327). 30 minutes after abdominal injection or 60 minutes after oral administration, the mice are put into an open glass box (19 cm high and 12 cm of diameter). Water inside the glass box is 8 cm in depth and 22˜23° C. in temperature. The mice are put into the water for 6 minutes and observed by Vidio movement analyzer, the accumulated immobility time of the mice during the last 4 minutes and their activity are analyzed identically as above.

5HT1A receptor = target: T1, 5HT1A receptor (Rattus norvegicus, UniProt P19327); assay: 5HT1A receptor test, competition with 3H-8-OH-DPAT on rat hippocampal membrane receptor; format: binding
T1 construct: 50 μl of 1:5 suspension of rat hippocampal membrane receptor; from tissue; host or cells: rat hippocampal membranes
T1 sequence (P19327 1-422): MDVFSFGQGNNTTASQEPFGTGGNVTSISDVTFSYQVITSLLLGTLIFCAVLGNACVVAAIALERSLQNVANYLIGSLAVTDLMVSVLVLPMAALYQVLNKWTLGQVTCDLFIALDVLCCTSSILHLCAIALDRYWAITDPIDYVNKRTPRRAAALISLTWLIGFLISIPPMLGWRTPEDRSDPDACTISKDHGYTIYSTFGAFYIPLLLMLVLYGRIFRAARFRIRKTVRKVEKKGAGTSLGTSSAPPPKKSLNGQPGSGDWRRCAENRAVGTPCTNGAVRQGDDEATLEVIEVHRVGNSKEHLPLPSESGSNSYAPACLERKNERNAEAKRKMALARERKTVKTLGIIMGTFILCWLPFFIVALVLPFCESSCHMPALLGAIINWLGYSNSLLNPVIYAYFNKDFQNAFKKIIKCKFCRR
Method: 20 μl of ^3H-8-OH-DPAT ([…]) and 20 μl of sample solutions of different concentrations are added into 50 μl of 1:5 suspension of rat hippocampal membrane receptor, followed by addition of buffer solution to make up to final volume of 200 μL. Then the above-mentioned suspension is shaken up and incubated in a water-bath at 25° C. for 30 minutes. After quick filtration by suction and washing the membrane receptors, radioactivity value is read by liquid scintillation counter. 20 μl of 5HT […] sulfate (1 mmol) solution is used instead to determine the non-specific conjugation. Buspirone, a partially activating agent of 5HT1A receptor, is used as the positive control. The competitive inhibition rate of the sample to ^3H-8-OH-DPAT is calculated according to the radioactivity value.

[1] = tested on: PC-12 cells damaged by corticosterone; assay: Protection of PC-12 cells damaged by corticosterone (MTT); format: cell-based, rat; details: for Absorbance (A): 10^−4 mol/L corticosterone, 48 h, MTT, 570 nm; for Increase of A (%): vs damaged control
Method: 3.2. Protection Effect of Compound of Formula I on PC-12 Cells Damaged by Corticosterone.
PC-12 cells are diluted into a suspension (2×10^5 cells/ml) with DMEM culture solution containing 5% calf serum and 5% horse serum, and then are transplanted into 96-well plates pretreated with polylysine, and cultivated under conditions of 37° C. and 5% CO2 for 2˜3 days. Cells are to grow all over the wells bottom before test. The culture solution is then pipetted away and serum-free DMEM is added containing certain concentration of test medicine and 10^−4 mol/L corticosterone, 10 μl of 5 mg/ml MTT is added 48 hours later to each well, shaking up slightly and, 4 hours later, 100 μl of 10% SDS is added to each well, again shaking up slightly. The plates are then left in the incubator overnight at 37° C.(about 8˜12 hours). After all the dark-blue crystals are dissolved, shaking up slightly and absorbance (A) of each sample at 570 nm is read using microplate reader.

SMILES: CC1OC(OC[C@H]2O[C@@H](Oc3c(-c4ccc(O)c(O)c4)oc4cc(O)cc(O)c4c3=O)[C@H](O[C@@H]3OC[C@](O)(CO)[C@H]3O)[C@@H](O)[C@@H]2O)C(O)C(O)C1O (stereo in doubt) [Compound of formula I, quercetin-3-O-β-D-apiofuranosyl-(1→2)-[α-D-rhamnopyranosyl-(1→6)]-β-D-glucopyranoside]
Amount of cAMP produced (adenylate cyclase (AC); 13.5 μM (0.01 mg/ml)): 23.27 ± 4.95 pmol/mg protein/minute | Amount of cAMP produced (adenylate cyclase (AC); 13.5 μM (0.01 mg/ml), listed as compound of formula I): 23.27±4.95 pmol/mg protein/minute | Amount of cAMP produced (adenylate cyclase (AC); 40.5 μM): 4.75 ± 6.33 pmol/mg protein/minute | Amount of cAMP produced (adenylate cyclase (AC); 135 μM): 43.42 pmol/mg protein/minute | AC activation relative to same doses of imipramine and buspirone (adenylate cyclase (AC); 404 μM (0.3 mg/ml)): 2˜3 times | Activation effect on AC (cAMP produced) (adenylate cyclase (AC); 404 μM (0.3 mg/ml)): 68.34±10.45 pmol/mg protein/minute | Amount of cAMP produced (adenylate cyclase (AC); 405 μM): 68.34 pmol/mg protein/minute | Duration of immobility (mice; 0.31 mg/kg): 148.69 ± 30.81 s | Duration of immobility (mice; 0.31 mg/kg, listed as compound of formula I): shorten the immobility time | Duration of immobility (mice; 1.25 mg/kg): 149.94 ± 34.87 s | Duration of immobility (mice; 5.00 mg/kg): 134.38 ± 40.99 s | immobility time (mice; 3.75 mg/kg): 95.2 ± 47.4 s | immobility time (mice; 7.5 mg/kg): 62.2 ± 45.9 s | immobility time (mice; 7.5 mg/kg, listed as compound of formula I): shorten the immobility time | immobility time (mice; 15 mg/kg): 53.6 ± 50.8 s | immobility time (mice; 30 mg/kg): 111.5 ± 52.9 s | pIC50 (5HT1A receptor): ~10.30 | Protection effect on PC-12 cells damaged by corticosterone (in words) [1]: strong protection effect | Absorbance (A) ([1]; 4.04 μmol·L^−1): 0.74 ± 0.14 | Increase of A (%) ([1]; 4.04 μmol·L^−1): 208.3% | Absorbance (A) ([1]; 14.38 μmol·L^−1): 0.84 ± 0.08 | Increase of A (%) ([1]; 14.38 μmol·L^−1): 250.0% | Absorbance (A) ([1]; 40.43 μmol·L^−1): 0.86 ± 0.10 | Increase of A (%) ([1]; 40.43 μmol·L^−1): 258.3% | Absorbance (A) ([1]; 134.77 μmol·L^−1): 0.77 ± 0.11 | Increase of A (%) ([1]; 134.77 μmol·L^−1): 220.8% | Absorbance (A) ([1]; 404.31 μmol·L^−1): 0.61 ± 0.16 | Increase of A (%) ([1]; 404.31 μmol·L^−1): 154.2%

pIC50 (5HT1A receptor; competitive inhibition of 3H-8-OH-DPAT, rat hippocampal membrane, 25° C., 30 minutes, read-out: IC50): ~9.70
SMILES: CCOc1cc(OCC)c2c(=O)c(OC3OC(COC4OC(C)C(O)C(O)C4O)C(O)C(O)C3OC3OCC(O)(CO)C3O)c(-c3ccc(OCC)c(OCC)c3)oc2c1 [5,7,3′,4′,-tetraethoxyl flavonol-3-O-β-D-apiofuranosyl-(1→2)-[α-D-rhamnopyranosyl-(1→6)]-β-D-glucopyranoside]

Amount of cAMP produced (adenylate cyclase (AC); 25 μM): 19.52 ± 5.46 pmol/mg protein/minute | Amount of cAMP produced (adenylate cyclase (AC); 100 μM): 19.71 ± 5.57 pmol/mg protein/minute | Amount of cAMP produced (adenylate cyclase (AC); 400 μM): 24.63 pmol/mg protein/minute | Amount of cAMP produced (adenylate cyclase (AC); 1 mM): 33.00 pmol/mg protein/minute | Activation of AC (in words) (adenylate cyclase (AC)): dose-dependently activate AC
SMILES: O=C1CC2(CCCC2)CC(=O)N1CCCCN1CCN(c2ncccn2)CC1 [buspirone]

Amount of cAMP produced (adenylate cyclase (AC); 25 μM): 15.07 ± 4.91 pmol/mg protein/minute | Amount of cAMP produced (adenylate cyclase (AC); 100 μM): 18.53 ± 3.2 pmol/mg protein/minute | Amount of cAMP produced (adenylate cyclase (AC); 400 μM): 30.32 pmol/mg protein/minute | Amount of cAMP produced (adenylate cyclase (AC); 1 mM): 79.79 pmol/mg protein/minute | Activation of AC (in words) (adenylate cyclase (AC)): dose-dependently activate AC
SMILES: CN(C)CCCN1c2ccccc2CCc2ccccc21 [imipramine]
